Measurements from patent publication US7741362B2, “Somatostatin receptor 1 and/or 4 selective agonists and antagonists” (Siegfried Wurster, priority 2003, dated 2010).
Where two headings read alike, the source gives them in different places.

Key:
[1] = molecular target: T1, human somatostatin receptor subtype SSTR4 (Homo sapiens, UniProt P31391); assay: Competition binding with 125I-LTT-sst-28, human somatostatin receptor subtype SSTR4
T1 construct: expressed in transfected cells; host or cells: CHO cells (membranes)
T1 sequence (P31391 whole entry): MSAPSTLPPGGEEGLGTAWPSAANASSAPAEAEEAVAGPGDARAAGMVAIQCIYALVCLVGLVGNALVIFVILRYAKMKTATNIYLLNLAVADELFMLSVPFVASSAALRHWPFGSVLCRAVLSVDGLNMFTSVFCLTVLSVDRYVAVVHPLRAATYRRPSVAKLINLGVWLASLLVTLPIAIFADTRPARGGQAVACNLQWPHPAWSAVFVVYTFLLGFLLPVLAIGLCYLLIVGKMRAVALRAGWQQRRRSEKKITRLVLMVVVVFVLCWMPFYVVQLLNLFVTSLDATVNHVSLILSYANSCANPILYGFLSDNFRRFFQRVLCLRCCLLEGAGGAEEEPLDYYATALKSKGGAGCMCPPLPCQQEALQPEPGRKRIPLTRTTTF
Procedure: (§1) The affinity of the compounds of the invention for the five human somatostatin receptor subtypes (SSTR1, SSTR2, SSTR3, SSTR4, and SSTR5) was determined in competition binding assays with (^125I-Tyr)-[Leu^8,DTrp^22]-somatostatin-28 (^125I-LTT-sst-28). The biological material for these experiments consisted of membranes from Chinese hamster ovary (CHO) cells stably transfected with one of the five human somatostatin receptor subtypes. Membranes (3-20 μg of total protein per sample) and trace amount of ^125I-LTT-sst-28 were incubated in 10 mM Hepes, 1 mM EDTA, 5 mM MgCl2, 5 mg/ml of BSA and 30 μg/ml bacitracin, pH 7.6 with six concentrations of the compounds. Each concentration was run in duplicate. Nonspecific binding was defined by 1 μM somatostatin-14 (sst-14) and corresponded to 5-25% of total binding. After 60 min at room temperature, incubations were terminated by rapid vacuum filtration through GF/B glass fiber filter mats (presoaked at 4° C. in 200 ml of 10 mM Hepes, 1 mM EDTA, 5 mM MgCl2, pH 7.6) and three 5 ml washes with ice-cold wash buffer (20 mM TRIS, 1 mM EDTA, 5 mM MgCl2, pH 7.4). The filters were then dried, impregnated with scintillate and their radioactivity was measured by scintillation counting. The analysis of the experiments was carried out by nonlinear least square curve fitting. Affinity constants (Ki) were calculated from the IC50 values according to the Cheng-Prusoff's equation (Cheng and Prusoff, 1973). Experiments were repeated a minimum of three times.

[2] = molecular target: T2, human somatostatin receptor subtype SSTR2 (Homo sapiens, UniProt P30874); assay: Competition binding with 125I-LTT-sst-28, human somatostatin receptor subtype SSTR2; conditions: membranes from CHO cells stably transfected with human SSTR2, Cheng-Prusoff
T2 construct: expressed in transfected cells; host or cells: CHO cells (membranes)
T2 sequence (P30874 whole entry): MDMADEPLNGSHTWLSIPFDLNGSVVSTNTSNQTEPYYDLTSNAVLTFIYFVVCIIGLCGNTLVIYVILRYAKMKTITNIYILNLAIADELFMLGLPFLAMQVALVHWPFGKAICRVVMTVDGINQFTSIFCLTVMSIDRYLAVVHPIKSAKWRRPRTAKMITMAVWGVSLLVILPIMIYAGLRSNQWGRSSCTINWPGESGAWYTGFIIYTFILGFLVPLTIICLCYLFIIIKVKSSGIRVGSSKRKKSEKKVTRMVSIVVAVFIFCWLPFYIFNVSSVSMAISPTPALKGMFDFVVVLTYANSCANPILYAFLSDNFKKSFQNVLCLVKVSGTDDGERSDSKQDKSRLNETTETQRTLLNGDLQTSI
Procedure: as §1, with “The analysis of the experiments was carried out by nonlinear least square curve fitting.” left out, “Experiments were repeated a minimum of three times.” left out

[3] = molecular target: T3, human somatostatin receptor subtype SSTR1 (Homo sapiens, UniProt P30872); assay: Competition binding with 125I-LTT-sst-28, human somatostatin receptor subtype SSTR1
T3 construct: expressed in transfected cells; host or cells: CHO cells (membranes)
T3 sequence (P30872 whole entry): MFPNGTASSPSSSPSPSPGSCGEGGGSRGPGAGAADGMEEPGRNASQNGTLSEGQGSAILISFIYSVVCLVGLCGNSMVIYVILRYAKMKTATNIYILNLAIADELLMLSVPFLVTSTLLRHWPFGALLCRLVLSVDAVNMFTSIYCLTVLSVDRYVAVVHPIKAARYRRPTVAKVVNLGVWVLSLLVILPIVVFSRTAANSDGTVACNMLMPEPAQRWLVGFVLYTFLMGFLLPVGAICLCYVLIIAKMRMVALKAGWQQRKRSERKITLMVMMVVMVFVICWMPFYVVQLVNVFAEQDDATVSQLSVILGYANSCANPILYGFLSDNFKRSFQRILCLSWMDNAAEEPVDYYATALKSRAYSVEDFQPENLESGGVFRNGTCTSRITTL
Procedure: as §1

[4] = molecular target: T4, human somatostatin receptor subtype SSTR3 (Homo sapiens, UniProt P32745); assay: Competition binding with 125I-LTT-sst-28, human somatostatin receptor subtype SSTR3; conditions: membranes from CHO cells stably transfected with human SSTR3, Cheng-Prusoff
T4 construct: expressed in transfected cells; host or cells: CHO cells (membranes)
T4 sequence (P32745 whole entry): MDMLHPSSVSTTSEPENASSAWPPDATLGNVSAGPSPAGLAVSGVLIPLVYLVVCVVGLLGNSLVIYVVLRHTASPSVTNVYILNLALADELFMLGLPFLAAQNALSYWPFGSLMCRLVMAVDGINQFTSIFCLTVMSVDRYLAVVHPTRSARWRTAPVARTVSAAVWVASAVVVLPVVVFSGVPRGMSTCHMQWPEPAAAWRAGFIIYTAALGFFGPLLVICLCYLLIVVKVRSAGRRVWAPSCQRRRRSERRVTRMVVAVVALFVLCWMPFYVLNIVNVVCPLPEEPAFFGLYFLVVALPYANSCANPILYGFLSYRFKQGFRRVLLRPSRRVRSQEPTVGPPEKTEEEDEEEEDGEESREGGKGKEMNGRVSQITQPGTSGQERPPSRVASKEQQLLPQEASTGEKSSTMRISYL
Procedure: as §1, with “The analysis of the experiments was carried out by nonlinear least square curve fitting.” left out, “Experiments were repeated a minimum of three times.” left out

[5] = molecular target: T5, human somatostatin receptor subtype SSTR5 (Homo sapiens, UniProt P35346); assay: Competition binding with 125I-LTT-sst-28, human somatostatin receptor subtype SSTR5; conditions: membranes from CHO cells stably transfected with human SSTR5, Cheng-Prusoff
T5 construct: expressed in transfected cells; host or cells: CHO cells (membranes)
T5 sequence (P35346 whole entry): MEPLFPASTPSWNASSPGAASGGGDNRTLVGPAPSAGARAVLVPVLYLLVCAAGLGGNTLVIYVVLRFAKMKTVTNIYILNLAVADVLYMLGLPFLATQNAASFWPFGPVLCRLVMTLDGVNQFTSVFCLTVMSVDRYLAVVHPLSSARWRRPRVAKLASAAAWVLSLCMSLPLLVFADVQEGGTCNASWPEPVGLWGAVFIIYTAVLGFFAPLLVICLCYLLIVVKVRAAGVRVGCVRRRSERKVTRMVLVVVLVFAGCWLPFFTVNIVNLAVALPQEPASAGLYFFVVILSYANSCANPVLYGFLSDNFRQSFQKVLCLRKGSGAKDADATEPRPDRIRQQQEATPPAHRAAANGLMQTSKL
Procedure: as §1, with “The analysis of the experiments was carried out by nonlinear least square curve fitting.” left out, “Experiments were repeated a minimum of three times.” left out

[6] = same protocol, less than 300 nM, read-out: Ki for SSTR4 (bound)
[7] = membranes from CHO cells stably transfected with human SSTR4, 125I-LTT-sst-28, Cheng-Prusoff, read-out: Ki (SSTR4)
[8] = same protocol, less than 300 nM, read-out: Ki for SSTR1 (bound)

Ki [1, 6] | Ki [3, 8] | Structure (SMILES) | further results
< 0.3 µM | – | Cc1ccc(S(=O)(=O)N[C@@H](CCN)C(=O)NC2CCCCC2)c2ccccc12 [Compound 1, 4-amino-N-cyclohexyl-(S)-2-(N′-(4-methyl-1-naphthalenesulfonyl)amino)butanamide] | –
– | – | Cc1ccc(S(=O)(=O)N[C@@H](CCN)C(=O)N[C@@H](Cc2ccccc2)C(N)=O)c2ccccc12 [Compound 2, 4-amino-N-(S)-1-carbamoyl-2-phenylethyl-(S)-2-(N′-(4-methyl-1-naphthalenesulfonyl)amino)butanamide] | Ki [2]: > 5 µM; Ki [1, 7]: 0.0012 ± 0.0004 µM
< 0.3 µM | < 0.3 µM | Cc1ccc(S(=O)(=O)N[C@@H](CCNC(C)C)C(=O)NCc2ccccc2)c2ccccc12 [Compound 3, N-benzyl-4-(N′-isopropyl)amino-(S)-2-(N″-(4-methyl-1-naphthalenesulfonyl)amino)butanamide] | –
< 0.3 µM | – | Cc1ccc(S(=O)(=O)N[C@@H](CCNC(=N)N)C(=O)NCc2ccccc2)c2ccccc12 [Compound 4, N-benzyl-4-guanidino-(S)-2-(N′-(4-methyl-1-naphthalenesulfonyl)amino)butanamide] | –
< 0.3 µM | < 0.3 µM | Cc1ccc(S(=O)(=O)N[C@@H](CCCNC(=N)N)C(=O)N[C@@H](Cc2ccccc2)C(N)=O)c2ccccc12 [Compound 5, N-((S)-1-carbamoyl-2-phenylethyl)-5-guanidino-(S)-2-(N′-(4-methyl-1-naphthalenesulfonyl)amino)pentanamide] | –
< 0.3 µM | < 0.3 µM | Cc1ccc(S(=O)(=O)N[C@@H](CCCNC(=N)N)C(=O)N[C@H](C(N)=O)C(c2ccccc2)c2ccccc2)c2ccccc12 [Compound 6, N-((S)-1-carbamoyl-2,2-diphenylethyl)-5-guanidino-(S)-2-(N′-(4-methyl-1-naphthalenesulfonyl)amino)pentanamide] | –
< 0.3 µM | < 0.3 µM | Cc1ccc(S(=O)(=O)N[C@@H](CCCN)C(=O)N[C@@H](Cc2ccccc2)C(N)=O)c2ccccc12 [Compound 7, 5-amino-N-((S)-1-carbamoyl-2-phenylethyl)-(S)-2-(N′-(4-methyl-1-naphthalenesulfonyl)amino)pentanamide] | –
< 0.3 µM | – | CCc1ccc(S(=O)(=O)N[C@@H](CCN)C(=O)N[C@@H](Cc2ccccc2)C(N)=O)c2ccccc12 [Compound 8, 4-amino-N-((S)-1-carbamoyl-2-phenylethyl)-(S)-2-(N′-(4-ethyl-1-naphthalenesulfonyl)amino)butanamide] | –
< 0.3 µM | – | Cc1ccc(S(=O)(=O)N[C@@H](CCN)C(=O)N[C@H](C(N)=O)C(c2ccccc2)c2ccccc2)c2ccccc12 [Compound 9, 4-amino-N-((S)-1-carbamoyl-2,2-diphenylethyl)-(S)-2-(N′-(4-methyl-1-naphthalenesulfonyl)amino)butanamide] | –
< 0.3 µM | – | NCC[C@H](NS(=O)(=O)c1cccc2ccccc12)C(=O)N[C@@H](Cc1ccccc1)C(N)=O [Compound 10, 4-amino-N-((S)-1-carbamoyl-2-phenylethyl)-(S)-2-(N′-(1-naphthalenesulfonyl)amino)butanamide] | –
– | < 0.3 µM | Cc1ccc(S(=O)(=O)N[C@@H](CCNC2CCCCC2)C(=O)NCc2ccccc2)c2ccccc12 [Compound 11, N-benzyl-4-N′-cyclohexylamino-(S)-2-(N″-(4-methyl-1-naphthalenesulfonyl)amino)butanamide] | –
< 0.3 µM | – | Cc1ccc(S(=O)(=O)N[C@@H](CCN)C(=O)N[C@H](C(N)=O)C(C)C)c2ccccc12 [Compound 13, 4-amino-N-((S)-1-carbamoyl-2-methylpropyl)-(S)-2-(N′-(4-methyl-1-naphthalenesulfonyl)amino)butanamide] | –
< 0.3 µM | – | CCc1cc(Br)ccc1S(=O)(=O)NC(CCN)C(=O)NC(Cc1ccccc1)C(N)=O [Compound 14, 4-amino-(S)-2-N-(4-bromo-2-ethylbenzenesulfonyl)-amino-N′-((S)-1-carbamoyl-2-phenylethyl)butanamide] | –
– | < 0.3 µM | N=C(N)NCCC[C@H](NS(=O)(=O)c1ccc2ccccc2c1)C(=O)N[C@@H](Cc1ccccc1)C(N)=O [Compound 15, N-((S)-1-carbamoyl-2-phenylethyl)-5-guanidino-(S)-2-(N′-(2-naphthalenesulfonyl)amino)pentanamide] | –
< 0.3 µM | – | N=C(N)NCCC[C@H](NS(=O)(=O)c1cccc(-c2ccccc2)c1)C(=O)N[C@@H](Cc1ccccc1)C(N)=O [Compound 16, N-((S)-1-carbamoyl-2-phenylethyl)-5-guanidino-(S)-2-(N′-(3-phenylbenzenesulfonyl)amino)pentanamide] | –
– | – | Cc1ccc(S(=O)(=O)NC(CCCNC(C)C)C(=O)NC2CCCc3ccccc32)c2ccccc12 [Compound 17, 5-N-isopropylamino-(S)-2-N′-(4-methyl-1-naphthalene-sulfonyl)amino-N″-(1,2,3,4-tetrahydro-1-naphthyl)-pentanamide] | Ki ([3]; membranes from CHO cells stably transfected with human SSTR1, 125I-LTT-sst-28, Cheng-Prusoff, read-out: Ki (SSTR1)): 0.001 ± 0.0004 µM; Ki [2]: > 10 µM; Ki [4]: > 2 µM; Ki [1, 7]: 0.084 ± 0.023 µM; Ki [5]: > 10 µM
– | < 0.3 µM | Cc1ccc(S(=O)(=O)NC(CCN)C(=O)NC2CCCc3ccccc32)c2ccccc12 [Compound 18, 4-amino-(S)-2-N-(4-methyl-1-naphthalenesulfonyl)-amino-N′-(1,2,3,4-tetrahydro-1-naphthyl)butanamide] | –
< 0.3 µM | – | Cc1ccc(S(=O)(=O)N[C@@H](CCCN)C(=O)NC2(C(N)=O)Cc3ccccc3C2)c2ccccc12 [Compound 19, 5-amino-N-(2-(2-carbamoyl)indanyl)-(S)-2-(N′-(4-methyl-1-naphthalenesulfonyl)amino)pentanamide] | –
< 0.3 µM | – | Cc1ccc(S(=O)(=O)N[C@@H](CCCN)C(=O)NCCc2c[nH]c3ccccc23)c2ccccc12 [Compound 20, 5-amino-N-(2-(1H-indol-3-yl)ethyl)-(S)-2-(N′-(4-methyl-1-naphthalenesulfonyl)amino)pentanamide] | –
– | < 0.3 µM | Cc1ccc(S(=O)(=O)N[C@@H](CCCN)C(=O)N[C@@H](Cc2cccc(Cl)c2)C(N)=O)c2ccccc12 [Compound 21, 5-amino-N-((S)-1-carbamoyl-2-(3-chlorophenyl)ethyl)-(S)-2-(N′-(4-methyl-1-naphthalenesulfonyl)amino)-pentanamide] | –
– | < 0.3 µM | Cc1ccc(S(=O)(=O)NC(CCCN)C(=O)NC2(C(N)=O)CCc3ccccc3C2)c2ccccc12 [Compound 22, 5-amino-N-(2-(2-carbamoyl)-1,2,3,4-tetrahydronaphthyl)-(S)-2-(N′-(4-methyl-1-naphthalenesulfonyl)amino)-pentanamide] | –
– | < 0.3 µM | CNCC[C@H](NS(=O)(=O)c1ccc(C)c2ccccc12)C(=O)NCCc1cccc(Cl)c1 [Compound 23, N-(2-(3-chlorophenyl)ethyl)-4-N′-methylamino-(S)-2-(N″-(4-methyl-1-naphthalenesulfonyl)amino)-butanamide] | –

Structure (SMILES) | Ki [1, 6] | Ki [3, 8] | further results
CCCCOc1ccc(S(=O)(=O)NC(CCCNC(=N)N)C(=O)NC(Cc2ccccc2)C(N)=O)cc1 [Compound 12, (S)-2-N-(4-butoxybenzenesulfonyl)amino-N′-((S)-1-carbamoyl-2-phenylethyl)-5-guanidinopentanamide] | – | < 0.3 µM | –
